Source: PMC8429728, “TNK1 is a ubiquitin-binding and 14-3-3-regulated kinase that can be targeted to block tumor growth” (Nature Communications, 2021)
Read-outs that look alike come from different tables or passages of the source.

Columns and labels:
Assay in all cases: biochemical
Design in all cases: Reaction Biology 371-kinase panel at Km ATP, per cent enzyme activity relative to DMSO, single dose in duplicate
[1] = molecular target: T1, TRKC (Homo sapiens, UniProt Q16288); conditions: duplicate measurements, Km ATP
T1 construct: gene NTRK3
In short: (§1)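 Compound screened at 300 nM in vitro across a 371-kinase panel. Enzyme activity expressed as % of DMSO controls. IC50 values came from sigmoidal variable-slope dose-response fits with the bottom fixed at 0.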

[2] = molecular target: T2, MKK6 (Homo sapiens, UniProt P52564); conditions: duplicate measurements, Km ATP
T2 construct: gene MAP2K6
T2 sequence (P52564 whole entry): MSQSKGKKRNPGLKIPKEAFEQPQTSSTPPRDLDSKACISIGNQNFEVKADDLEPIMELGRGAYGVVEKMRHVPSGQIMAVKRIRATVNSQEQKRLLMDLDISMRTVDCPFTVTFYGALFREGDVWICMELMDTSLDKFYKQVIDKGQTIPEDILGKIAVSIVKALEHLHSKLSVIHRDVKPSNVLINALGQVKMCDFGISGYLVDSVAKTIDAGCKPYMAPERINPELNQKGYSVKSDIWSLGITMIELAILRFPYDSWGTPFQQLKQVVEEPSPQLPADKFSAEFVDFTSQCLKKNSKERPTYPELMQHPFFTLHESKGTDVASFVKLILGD
In short: as §1

[3] = molecular target: ALK2/ACVR1 (Homo sapiens, UniProt Q04771); conditions: duplicate measurements, Km ATP; read-out: % Enzyme Activity (relative to DMSO controls) / TP-0005801 (0.3µM) / Data 1
In short: as §1

[4] = molecular target: HGK/MAP4K4 (Homo sapiens, UniProt O95819); conditions: duplicate measurements, Km ATP
In short: as §1

[5] = molecular target: WEE1 (Homo sapiens, UniProt P30291); conditions: duplicate measurements, Km ATP
In short: as §1

[6] = molecular target: T3, AURORA C (Homo sapiens, UniProt Q9UQB9); conditions: duplicate measurements, Km ATP
T3 construct: gene AURKC
T3 sequence (Q9UQB9 whole entry): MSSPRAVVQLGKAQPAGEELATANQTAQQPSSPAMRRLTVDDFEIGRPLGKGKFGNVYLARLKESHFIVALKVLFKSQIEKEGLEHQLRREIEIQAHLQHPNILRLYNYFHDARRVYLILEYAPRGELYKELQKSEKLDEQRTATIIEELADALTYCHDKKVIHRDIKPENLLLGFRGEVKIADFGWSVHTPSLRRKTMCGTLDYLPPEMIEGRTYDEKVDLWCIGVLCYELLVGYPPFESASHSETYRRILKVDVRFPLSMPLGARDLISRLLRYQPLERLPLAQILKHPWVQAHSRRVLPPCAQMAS
In short: as §1

[7] = molecular target: NEK6 (Homo sapiens, UniProt Q9HC98); conditions: duplicate measurements, Km ATP
Chain of NEK6 (Q9HC98 whole entry): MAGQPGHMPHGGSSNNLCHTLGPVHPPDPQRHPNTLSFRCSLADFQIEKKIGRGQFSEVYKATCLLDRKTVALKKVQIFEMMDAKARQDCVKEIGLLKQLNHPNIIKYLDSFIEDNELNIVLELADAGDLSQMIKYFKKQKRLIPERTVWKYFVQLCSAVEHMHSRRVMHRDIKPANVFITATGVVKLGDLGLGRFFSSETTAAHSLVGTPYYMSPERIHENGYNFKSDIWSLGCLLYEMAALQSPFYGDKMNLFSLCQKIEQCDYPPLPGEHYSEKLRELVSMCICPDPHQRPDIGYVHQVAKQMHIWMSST
In short: as §1

[8] = molecular target: PDK1/PDPK1 (Homo sapiens, UniProt O15530); conditions: duplicate measurements, Km ATP
In short: as §1

[9] = molecular target: T4, DCAMKL1 (Homo sapiens, UniProt O15075); conditions: duplicate measurements, Km ATP
T4 construct: gene DCLK1
In short: as §1

[10] = molecular target: CDK17/cyclin Y (PCTK2) (Homo sapiens, UniProt Q00537); conditions: duplicate measurements, Km ATP; read-out: % Enzyme Activity (relative to DMSO controls) / TP-0005801 (0.3µM) / Data 1
In short: as §1

[11] = molecular target: FRK/PTK5 (Homo sapiens, UniProt P42685); conditions: duplicate measurements, Km ATP
In short: as §1

[12] = molecular target: CDK4/cyclin D3 (Homo sapiens, UniProt P11802); conditions: duplicate measurements, Km ATP
In short: as §1

[13] = molecular target: ERN2/IRE2 (Homo sapiens, UniProt Q76MJ5); conditions: duplicate measurements, Km ATP
In short: as §1

[14] = molecular target: CDK1/cyclin A (Homo sapiens, UniProt P06493); conditions: duplicate measurements, Km ATP
Chain of CDK1/cyclin A (P06493 whole entry): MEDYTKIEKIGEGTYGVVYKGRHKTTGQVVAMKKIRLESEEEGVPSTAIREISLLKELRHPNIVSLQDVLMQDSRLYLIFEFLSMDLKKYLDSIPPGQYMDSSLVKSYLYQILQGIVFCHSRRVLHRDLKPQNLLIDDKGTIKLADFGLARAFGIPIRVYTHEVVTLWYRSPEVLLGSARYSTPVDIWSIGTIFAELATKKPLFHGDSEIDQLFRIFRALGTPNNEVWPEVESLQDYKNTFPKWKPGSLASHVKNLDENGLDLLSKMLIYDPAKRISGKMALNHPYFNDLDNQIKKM
Chain of CDK1/cyclin A (P20248 whole entry partner): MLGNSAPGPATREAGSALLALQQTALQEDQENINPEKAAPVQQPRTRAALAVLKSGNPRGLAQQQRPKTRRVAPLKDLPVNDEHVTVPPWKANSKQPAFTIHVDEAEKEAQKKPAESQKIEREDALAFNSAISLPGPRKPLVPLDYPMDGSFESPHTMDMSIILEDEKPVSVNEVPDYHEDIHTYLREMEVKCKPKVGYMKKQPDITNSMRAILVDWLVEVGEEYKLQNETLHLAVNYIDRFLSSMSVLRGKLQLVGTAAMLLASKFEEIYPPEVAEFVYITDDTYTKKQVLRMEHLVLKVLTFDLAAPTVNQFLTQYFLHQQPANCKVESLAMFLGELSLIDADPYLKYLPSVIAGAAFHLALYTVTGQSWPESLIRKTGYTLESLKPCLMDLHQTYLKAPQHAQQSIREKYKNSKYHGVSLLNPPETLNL
In short: as §1

[15] = molecular target: ALK5/TGFBR1 (Homo sapiens, UniProt P36897); conditions: duplicate measurements, Km ATP
Chain of ALK5/TGFBR1 (P36897 whole entry): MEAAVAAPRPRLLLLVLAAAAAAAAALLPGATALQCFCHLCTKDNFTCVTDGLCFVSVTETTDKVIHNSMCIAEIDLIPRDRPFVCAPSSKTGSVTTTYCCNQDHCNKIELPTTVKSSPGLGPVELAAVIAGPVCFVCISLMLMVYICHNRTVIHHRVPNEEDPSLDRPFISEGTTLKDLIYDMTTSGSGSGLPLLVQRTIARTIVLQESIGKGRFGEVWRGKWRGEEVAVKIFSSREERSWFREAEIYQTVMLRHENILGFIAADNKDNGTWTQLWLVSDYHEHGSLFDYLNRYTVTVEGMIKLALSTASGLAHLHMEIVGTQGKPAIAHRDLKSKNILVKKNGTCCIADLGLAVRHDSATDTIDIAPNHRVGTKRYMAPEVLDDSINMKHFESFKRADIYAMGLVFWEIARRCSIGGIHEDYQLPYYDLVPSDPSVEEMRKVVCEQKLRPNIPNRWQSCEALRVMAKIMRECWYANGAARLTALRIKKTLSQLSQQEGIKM
In short: as §1

[16] = molecular target: CDK1/cyclin B (Homo sapiens, UniProt P06493); conditions: duplicate measurements, Km ATP; read-out: % Enzyme Activity (relative to DMSO controls) / TP-0005801 (0.3µM) / Data 1
In short: as §1

[17] = molecular target: CDK19/cyclin C (Homo sapiens, UniProt Q9BWU1); conditions: duplicate measurements, Km ATP
Chain of CDK19/cyclin C (Q9BWU1 whole entry): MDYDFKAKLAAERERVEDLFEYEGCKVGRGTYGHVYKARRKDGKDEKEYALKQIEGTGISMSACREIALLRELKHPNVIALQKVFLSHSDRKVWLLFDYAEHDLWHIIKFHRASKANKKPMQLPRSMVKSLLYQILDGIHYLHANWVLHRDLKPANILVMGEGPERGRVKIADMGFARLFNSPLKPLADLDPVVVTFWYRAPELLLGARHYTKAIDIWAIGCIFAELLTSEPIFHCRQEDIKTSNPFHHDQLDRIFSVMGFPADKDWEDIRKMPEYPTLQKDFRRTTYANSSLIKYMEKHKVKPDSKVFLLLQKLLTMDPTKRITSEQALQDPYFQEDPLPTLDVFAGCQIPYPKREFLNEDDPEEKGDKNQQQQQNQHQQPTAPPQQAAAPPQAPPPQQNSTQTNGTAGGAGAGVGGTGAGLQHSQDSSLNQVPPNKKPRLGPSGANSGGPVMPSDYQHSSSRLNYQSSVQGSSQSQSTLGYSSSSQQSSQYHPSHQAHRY
Chain of CDK19/cyclin C (P24863 whole entry partner): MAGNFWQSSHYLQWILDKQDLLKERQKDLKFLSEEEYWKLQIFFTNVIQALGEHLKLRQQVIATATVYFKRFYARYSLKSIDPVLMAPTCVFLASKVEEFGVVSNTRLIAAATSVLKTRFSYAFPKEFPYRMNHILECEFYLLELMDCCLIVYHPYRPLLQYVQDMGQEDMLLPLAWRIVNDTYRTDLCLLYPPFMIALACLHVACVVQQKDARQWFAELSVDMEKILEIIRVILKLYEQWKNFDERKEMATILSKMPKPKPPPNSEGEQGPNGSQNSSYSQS
In short: as §1

[18] = molecular target: ALK3/BMPR1A (Homo sapiens, UniProt P36894); conditions: duplicate measurements, Km ATP
Chain of ALK3/BMPR1A (P36894 whole entry): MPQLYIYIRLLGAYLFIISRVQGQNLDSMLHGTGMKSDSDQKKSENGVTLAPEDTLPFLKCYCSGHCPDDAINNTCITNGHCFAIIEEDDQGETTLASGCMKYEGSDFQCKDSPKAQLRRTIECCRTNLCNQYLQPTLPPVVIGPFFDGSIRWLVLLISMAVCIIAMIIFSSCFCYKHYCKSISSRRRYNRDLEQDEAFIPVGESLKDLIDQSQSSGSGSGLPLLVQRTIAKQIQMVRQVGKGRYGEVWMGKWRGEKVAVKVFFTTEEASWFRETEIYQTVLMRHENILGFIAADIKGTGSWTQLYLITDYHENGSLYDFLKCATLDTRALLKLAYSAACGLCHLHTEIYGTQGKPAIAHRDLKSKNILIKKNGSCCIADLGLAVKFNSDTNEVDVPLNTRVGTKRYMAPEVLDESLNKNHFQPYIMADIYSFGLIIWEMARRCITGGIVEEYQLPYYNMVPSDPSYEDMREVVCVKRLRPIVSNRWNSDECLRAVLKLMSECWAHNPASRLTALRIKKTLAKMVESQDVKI
In short: as §1

[19] = molecular target: T5, ACK1 (Homo sapiens, UniProt Q07912); conditions: duplicate measurements, Km ATP
T5 construct: gene TNK2
T5 sequence (Q07912 whole entry): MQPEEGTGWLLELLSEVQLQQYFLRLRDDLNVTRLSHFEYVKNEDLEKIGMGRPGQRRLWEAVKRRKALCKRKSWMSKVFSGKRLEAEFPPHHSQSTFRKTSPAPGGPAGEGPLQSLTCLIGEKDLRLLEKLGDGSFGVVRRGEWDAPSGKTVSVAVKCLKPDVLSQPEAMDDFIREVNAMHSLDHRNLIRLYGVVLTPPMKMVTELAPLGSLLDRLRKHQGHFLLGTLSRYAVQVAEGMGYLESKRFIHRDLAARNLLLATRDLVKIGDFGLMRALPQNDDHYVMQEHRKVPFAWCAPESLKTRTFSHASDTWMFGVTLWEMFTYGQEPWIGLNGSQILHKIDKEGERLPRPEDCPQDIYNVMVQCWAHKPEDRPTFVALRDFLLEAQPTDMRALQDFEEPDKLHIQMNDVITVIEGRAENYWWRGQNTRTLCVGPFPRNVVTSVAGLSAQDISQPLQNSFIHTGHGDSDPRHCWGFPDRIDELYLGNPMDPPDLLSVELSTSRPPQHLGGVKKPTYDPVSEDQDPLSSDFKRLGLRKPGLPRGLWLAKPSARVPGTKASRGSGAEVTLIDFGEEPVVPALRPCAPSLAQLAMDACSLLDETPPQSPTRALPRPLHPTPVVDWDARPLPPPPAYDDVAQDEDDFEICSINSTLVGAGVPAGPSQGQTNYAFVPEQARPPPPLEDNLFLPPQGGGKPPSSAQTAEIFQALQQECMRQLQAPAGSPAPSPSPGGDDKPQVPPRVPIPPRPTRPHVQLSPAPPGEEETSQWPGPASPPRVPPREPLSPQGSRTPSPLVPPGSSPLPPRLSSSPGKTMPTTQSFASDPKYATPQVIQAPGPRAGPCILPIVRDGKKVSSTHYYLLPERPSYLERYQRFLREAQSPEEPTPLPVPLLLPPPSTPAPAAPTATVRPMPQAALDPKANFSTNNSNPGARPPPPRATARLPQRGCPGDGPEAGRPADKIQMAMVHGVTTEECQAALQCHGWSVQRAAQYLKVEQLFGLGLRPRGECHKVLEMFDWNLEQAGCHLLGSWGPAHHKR
In short: as §1

[20] = molecular target: p70S6K/RPS6KB1 (Homo sapiens, UniProt P23443); conditions: duplicate measurements, Km ATP
In short: as §1

[21] = read-out: % Enzyme Activity (relative to DMSO controls) / TP-0005801 (0.3µM) / Data 1
[22] = read-out: % Enzyme Activity (relative to DMSO controls) / TP-0005801 (0.3µM) / Data 2

- remaining activity at 0.3 µM [1, 21]: 109%
- remaining activity at 0.3 µM [1, 22]: 104%
- remaining activity at 0.3 µM [2, 21]: 116%
- remaining activity at 0.3 µM [2, 22]: 115%
- remaining activity at 0.3 µM [3]: 90.6%
- remaining activity at 0.3 µM [4, 21]: 103%
- remaining activity at 0.3 µM [4, 22]: 102%
- remaining activity at 0.3 µM [5, 21]: 94.2%
- remaining activity at 0.3 µM [5, 22]: 93.6%
- remaining activity at 0.3 µM [6, 21]: 97%
- remaining activity at 0.3 µM [6, 22]: 92.9%
- remaining activity at 0.3 µM [7, 21]: 95.2%
- remaining activity at 0.3 µM [7, 22]: 91.5%
- remaining activity at 0.3 µM [8, 21]: 89.9%
- remaining activity at 0.3 µM [8, 22]: 89.6%
- remaining activity at 0.3 µM [9, 21]: 94.9%
- remaining activity at 0.3 µM [9, 22]: 93.4%
- remaining activity at 0.3 µM [10]: 101%
- remaining activity at 0.3 µM [11, 21]: 72%
- remaining activity at 0.3 µM [11, 22]: 71%
- remaining activity at 0.3 µM [12, 21]: 91.7%
- remaining activity at 0.3 µM [12, 22]: 90.8%
- remaining activity at 0.3 µM [13, 21]: 52.8%
- remaining activity at 0.3 µM [13, 22]: 51.5%
- remaining activity at 0.3 µM [14, 21]: 102%
- remaining activity at 0.3 µM [14, 22]: 101%
- remaining activity at 0.3 µM [15, 21]: 88.1%
- remaining activity at 0.3 µM [15, 22]: 88%
- remaining activity at 0.3 µM [16]: 103%
- remaining activity at 0.3 µM [17, 21]: 54.8%
- remaining activity at 0.3 µM [17, 22]: 54.1%
- remaining activity at 0.3 µM [18, 21]: 105%
- remaining activity at 0.3 µM [18, 22]: 100%
- remaining activity at 0.3 µM [19, 21]: 1.69%
- remaining activity at 0.3 µM [19, 22]: 1.45%
- remaining activity at 0.3 µM [20, 21]: 105%
- remaining activity at 0.3 µM [20, 22]: 102%
SMILES: COc1cc(N2CCN(C)CC2)c(C)cc1Nc1ncc(Br)c(Nc2cccnc2N(C)C)n1 [TP-5801]
